The source of these data is US11427567B2, “Imidazolyl pyrimidinylamine compounds as CDK2 inhibitors” (Incyte Corporation, priority 2019, dated 2022).

In general, IC50 refers to the concentration at which inhibition is half-maximal. Read a low IC50 as greater potency.

This test deals with CDK2/Cyclin E1 (Homo sapiens (Human), UniProt P24941). In words: CDK2/Cyclin E1 HTRF enzyme activity assay (Example A). To be noted: 1 mM ATP. Format: biochemical. How it is done: Assays were conducted in white 384-well polystyrene plates in a final reaction volume of 8 μL. […] HTRF signals were read after 1 hour at room temperature on a PHERAstar FS plate reader (BMG Labtech). Data was analyzed with IDBS XLFit and GraphPad Prism 5.0 software using a three or four parameter dose response curve to determine IC50 for each compound.

`Cc1cc(CNCC(F)F)ccc1-n1cnc(-c2nc(NC3CCN(S(C)(=O)=O)CC3)ncc2C(F)(F)F)c1` [Example 450, 4-(1-(4-(((2,2-Difluoroethyl)amino)methyl)-2-methylphenyl)-1H-imidazol-4-yl)-N-(1-(methylsulfonyl)piperidin-4-yl)-5-(trifluoromethyl)pyrimidin-2-amine] yielded an IC50 not above 50 nM.
The same measure for `CN1CCN(Cc2ccc(-n3cnc(-c4nc(NC5CCN(S(C)(=O)=O)CC5)ncc4C(F)(F)F)c3)c(Cl)c2)C(=O)C1` [Example 451, 1-(3-Chloro-4-(4-(2-((1-(methylsulfonyl)piperidin-4-yl)amino)-5-(trifluoromethyl)pyrimidin-4-yl)-1H-imidazol-1-yl)benzyl)-4-methylpiperazin-2-one]: not above 50 nM; for `CS(=O)(=O)N1CCC(Nc2ncc(C(F)(F)F)c(-c3cn(-c4ccc(CN5CCC5=O)cc4Cl)cn3)n2)CC1` [Example 452, 1-(3-Chloro-4-(4-(2-((1-(methylsulfonyl)piperidin-4-yl)amino)-5-(trifluoromethyl)pyrimidin-4-yl)-1H-imidazol-1-yl)benzyl)azetidin-2-one]: not above 50 nM; for `CN1CCN(Cc2ccc(-n3cnc(-c4nc(NC5CCN(S(C)(=O)=O)CC5)ncc4C(F)(F)F)c3)c(Cl)c2)C1=O` [Example 453, 1-(3-Chloro-4-(4-(2-((1-(methylsulfonyl)piperidin-4-yl)amino)-5-(trifluoromethyl)pyrimidin-4-yl)-1H-imidazol-1-yl)benzyl)-3-methylimidazolidin-2-one]: not above 50 nM.
The compound `CS(=O)(=O)N1CCC(Nc2ncc(C(F)(F)F)c(-c3cn(-c4ccc(CN5CCCC5=O)cc4Cl)cn3)n2)CC1` [Example 454, 1-(3-Chloro-4-(4-(2-((1-(methylsulfonyl)piperidin-4-yl)amino)-5-(trifluoromethyl)pyrimidin-4-yl)-1H-imidazol-1-yl)benzyl)pyrrolidin-2-one] returned an IC50 not above 50 nM.
The same measure for `Cc1nc(-c2nc(NC3CCN(S(C)(=O)=O)CC3)ncc2C(F)(F)F)cn1-c1ccc(N2CCC(N3CCC(O)C3)CC2)cc1F` (stereo not shown) [Example 455, 1-(1-(3-Fluoro-4-(2-methyl-4-(2-((1-(methylsulfonyl)piperidin-4-yl)amino)-5-(trifluoromethyl)pyrimidin-4-yl)-1H-imidazol-1-yl)phenyl)piperidin-4-yl)pyrrolidin-3-ol]: not above 50 nM; for `Cc1nc(-c2nc(NC3CCN(S(C)(=O)=O)CC3)ncc2C(F)(F)F)cn1-c1ccc(N2CC(C)(O)C2)cc1F` [Example 456, 1-(3-Fluoro-4-(2-methyl-4-(2-((1-(methylsulfonyl)piperidin-4-yl)amino)-5-(trifluoromethyl)pyrimidin-4-yl)-1H-imidazol-1-yl)phenyl)-3-methylazetidin-3-ol]: not above 50 nM; for `CN1CCN(CCc2ccc(-n3cnc(-c4nc(NC5CCN(S(C)(=O)=O)CC5)ncc4C(F)(F)F)c3)c(C#N)c2)CC1` [Example 457, 5-(2-(4-Methylpiperazin-1-yl)ethyl)-2-(4-(2-((1-(methylsulfonyl)piperidin-4-yl)amino)-5-(trifluoromethyl)pyrimidin-4-yl)-1H-imidazol-1-yl)benzonitrile]: not above 50 nM.
`CS(=O)(=O)N1CCC(Nc2ncc(C(F)(F)F)c(-c3cn(-c4ccc(CCN5CCCCC5)cc4C#N)cn3)n2)CC1` [Example 458, 2-(4-(2-((1-(Methylsulfonyl)piperidin-4-yl)amino)-5-(trifluoromethyl)pyrimidin-4-yl)-1H-imidazol-1-yl)-5-(2-(piperidin-1-yl)ethyl)benzonitrile] yielded an IC50 not above 50 nM.
The compound `Cc1nc(-c2nc(NC3CCN(S(C)(=O)=O)CC3)ncc2C(F)(F)F)cn1-c1ccc(CCCN2CCC2)cc1F` [Example 459, 4-(1-(4-(3-(Azetidin-1-yl)propyl)-2-fluorophenyl)-2-methyl-1H-imidazol-4-yl)-N-(1-(methylsulfonyl)piperidin-4-yl)-5-(trifluoromethyl)pyrimidin-2-amine] had a concentration for half-maximal inhibition (IC50) not above 50 nM.
Regarding `CCN(C)CCCc1ccc(-n2cc(-c3nc(NC4CCN(S(C)(=O)=O)CC4)ncc3C(F)(F)F)nc2C)c(F)c1` [Example 460, 4-(1-(4-(3-(Ethyl(methyl)amino)propyl)-2-fluorophenyl)-2-methyl-1H-imidazol-4-yl)-N-(1-(methylsulfonyl)piperidin-4-yl)-5-(trifluoromethyl)pyrimidin-2-amine], the IC50 is not above 50 nM.
Consider `CS(=O)(=O)N1CCC(Nc2ncc(C(F)(F)F)c(-c3cn(-c4ccccc4F)c(Br)n3)n2)CC1` [Example 461, 4-(2-Bromo-1-(2-fluorophenyl)-1H-imidazol-4-yl)-N-(1-(methylsulfonyl)piperidin-4-yl)-5-(trifluoromethyl)pyrimidin-2-amine], for which the IC50 was not above 50 nM.
Compound `[2H]C([2H])([2H])NCc1cccc(-n2cnc(-c3nc(NC4CCN(S(C)(=O)=O)CC4)ncc3C(F)(F)F)c2)c1Cl` [Example 462, 4-(1-(2-Chloro-3-(((methyl-d3)amino)methyl)phenyl)-1H-imidazol-4-yl)-N-(1-(methylsulfonyl)piperidin-4-yl)-5-(trifluoromethyl)pyrimidin-2-amine] gave an IC50 not above 50 nM.
In the case of `CS(=O)(=O)N1CCC(Nc2ncc(C(F)(F)F)c(-c3cn(-c4cccc(CN5CC(C#N)C5)c4Cl)cn3)n2)CC1` [Example 463, 1-(2-Chloro-3-(4-(2-((1-(methylsulfonyl)piperidin-4-yl)amino)-5-(trifluoromethyl)pyrimidin-4-yl)-1H-imidazol-1-yl)benzyl)azetidine-3-carbonitrile] it was not above 50 nM; in that of `CN1CCN(CCc2cccc(-n3cnc(-c4nc(NC5CCN(S(C)(=O)=O)CC5)ncc4C(F)(F)F)c3)c2Cl)CC1` [Example 464, 4-(1-(2-Chloro-3-(2-(4-methylpiperazin-1-yl)ethyl)phenyl)-1H-imidazol-4-yl)-N-(1-(methylsulfonyl)piperidin-4-yl)-5-(trifluoromethyl)pyrimidin-2-amine], not above 50 nM; in that of `CC(C)NCCc1cccc(-n2cnc(-c3nc(NC4CCN(S(C)(=O)=O)CC4)ncc3C(F)(F)F)c2)c1Cl` [Example 465, 4-(1-(2-Chloro-3-(2-(isopropylamino)ethyl)phenyl)-1H-imidazol-4-yl)-N-(1-(methylsulfonyl)piperidin-4-yl)-5-(trifluoromethyl)pyrimidin-2-amine], not above 50 nM.
`CCNCCc1cccc(-n2cnc(-c3nc(NC4CCN(S(C)(=O)=O)CC4)ncc3C(F)(F)F)c2)c1Cl` [Example 466, 4-(1-(2-Chloro-3-(2-(ethylamino)ethyl)phenyl)-1H-imidazol-4-yl)-N-(1-(methylsulfonyl)piperidin-4-yl)-5-(trifluoromethyl)pyrimidin-2-amine] gave an IC50 not above 50 nM.
As for `CNCCc1cccc(-n2cnc(-c3nc(NC4CCN(S(C)(=O)=O)CC4)ncc3C(F)(F)F)c2)c1Cl` [Example 467, 4-(1-(2-Chloro-3-(2-(methylamino)ethyl)phenyl)-1H-imidazol-4-yl)-N-(1-(methylsulfonyl)piperidin-4-yl)-5-(trifluoromethyl)pyrimidin-2-amine], the IC50 is not above 50 nM.
For `CC(C)NC(C)c1cccc(-n2cnc(-c3nc(NC4CCN(S(C)(=O)=O)CC4)ncc3C(F)(F)F)c2)c1Cl` (stereo not shown) [Example 468, 4-(1-(2-Chloro-3-(1-(isopropylamino)ethyl)phenyl)-1H-imidazol-4-yl)-N-(1-(methylsulfonyl)piperidin-4-yl)-5-(trifluoromethyl)pyrimidin-2-amine], the IC50 is not above 50 nM.
